Square brackets hold non-standard residues; d marks the D form. Peptide text beside a SMILES is read from it. * marks the point of attachment. Lys(5-FITC)NH2 = NC(=O)[C@H](CCCCNC(=S)Nc1ccc2c(c1)C(=O)OC21c2ccc(O)cc2Oc2cc(O)ccc21)N*; FITC = O=C1OC2(c3ccc(O)cc3Oc3cc(O)ccc32)c2ccc(NC(=S)*)cc21; Phe(4-F) = N[C@@H](Cc1ccc(F)cc1)C(=O)O; d2Nal = N[C@H](Cc1ccc2ccccc2c1)C(=O)O; Benzoyl(3-Br) = O=C(c1cccc(Br)c1)*; Isonicotinoyl = O=C(c1ccncc1)*; Phg = N[C@H](C(=O)O)c1ccccc1; Tle = CC(C)(C)[C@H](N)C(=O)O; X2 = O=C(C=Cc1ccc(Cl)cc1)*; X5 = O=C(c1cc(F)cc(Br)c1)*; X4 = O=C(c1ccc(Cl)nc1)*; Dap = NC[C@H](N)C(=O)O; Bn = c1ccc(C*)cc1 Bounds are passed on as bounds.

Data on 14 compounds can be found in US10736932B2, “Small molecule Ras inhibitors” (Ohio State Innovation Foundation, priority 2014, dated 2020).

One assay has as its target T1, K-Ras / Raf RBD interaction (Homo sapiens, UniProt P01116, G12V).
T1 construct: The G12V mutant K-Ras (amino acids 1-185) was recombinantly fused; GST (N, cleaved yes); made in house; host or cells: Escherichia coli BL21
Nature of the assay: HTRF assay, inhibition of Ras-Raf RBD interaction.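 Note: HTRF signal read after overnight incubation of the assay plate at 4 °C.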
Details: not given
In kind it is binding.
Turning to `C[C@H]1NC(=O)[C@H]([C@@H](C)O)NC(=O)[C@H](Cc2c[nH]c3ccccc23)NC(=O)[C@H](CCC(N)=O)NC(=O)[C@@H](CCCNC(=N)N)NC(=O)[C@H](Cc2ccc(F)cc2)NC(=O)[C@H](CCCNC(=N)N)NC(=O)[C@@H](Cc2ccc3ccccc3c2)NC(=O)[C@H](CCCNC(=N)N)NC(=O)[C@H](CCCNC(=N)N)NC(=O)[C@H](CCCNC(=N)N)NC1=O` [Cyclorasin 9A45, (Trp-Thr-ala-Arg-Arg-Arg-nal-Arg-Fpa-arg-Gln)] (cyclo(WT[dA]RRR[d2Nal]R[Phe(4-F)][dR]Q)), inhibition was half-maximal at 36 ± 4 nM (IC50).

The same assay, now with this note: relative to parent 9A5/9A6.
As to `C[C@H]1NC(=O)[C@H]([C@@H](C)O)NC(=O)[C@H](Cc2c[nH]c3ccccc23)NC(=O)[C@H](CCC(N)=O)NC(=O)[C@@H](CCCNC(=N)N)NC(=O)[C@H](Cc2ccc(F)cc2)NC(=O)[C@H](CCCNC(=N)N)NC(=O)[C@@H](Cc2ccc3ccccc3c2)NC(=O)[C@H](CCCNC(=N)N)NC(=O)[C@H](CCCNC(=N)N)NC(=O)[C@H](CCCNC(=N)N)NC1=O` [Cyclorasin 9A45, (Trp-Thr-ala-Arg-Arg-Arg-nal-Arg-Fpa-arg-Gln)] (cyclo(WT[dA]RRR[d2Nal]R[Phe(4-F)][dR]Q)), the “increase in Ras binding affinity upon residue substitution” value was 4 fold.

For another assay, the target named is T2, K-Ras(G12V) (Homo sapiens, UniProt P01116, G12V).
T2 construct: The G12V mutant K-Ras (amino acids 1-185) was recombinantly fused; GST (N, cleaved yes); made in house; host or cells: Escherichia coli BL21
In words: Fluorescence anisotropy (FA) binding of FITC-labeled cyclic peptides to K-Ras. As to conditions: Table 1; resynthesized FITC-labeled peptides, FA, K-Ras; read-out: KD.
`C[C@@H](O)[C@@H]1NC(=O)[C@H](Cc2ccc(O)cc2)NC(=O)[C@@H](CC(N)=O)NC(=O)[C@H](Cc2ccc(F)cc2)NC(=O)[C@H](CCCNC(=N)N)NC(=O)[C@@H](Cc2ccc3ccccc3c2)NC(=O)[C@H](CCCNC(=N)N)NC(=O)[C@H](CCCNC(=N)N)NC(=O)[C@H](CCC(=O)N[C@@H](CCCCNC(=S)Nc2ccc3c(c2)C(=O)OC32c3ccc(O)cc3Oc3cc(O)ccc32)C(N)=O)NC(=O)[C@@H](CC(N)=O)NC1=O` [Cyclorasin 2A, (Arg-Arg-nal-Arg-Fpa-asn-Tyr-Thr-asn-Gln)] (cyclo(RR[d2Nal]R[Phe(4-F)][dN]YT[dN]E(Lys(5-FITC)NH2))): the Kd is over 10000 nM. The same measure, in the same setting: next, `N=C(N)NCCC[C@@H]1NC(=O)[C@H](CCC(=O)N[C@@H](CCCCNC(=S)Nc2ccc3c(c2)C(=O)OC32c3ccc(O)cc3Oc3cc(O)ccc32)C(N)=O)NC(=O)[C@@H](Cc2ccccc2)NC(=O)[C@@H](CO)NC(=O)[C@H](Cc2ccc(O)cc2)NC(=O)[C@H](c2ccccc2)NC(=O)[C@H](Cc2ccc(F)cc2)NC(=O)[C@H](CCCNC(=N)N)NC(=O)[C@@H](Cc2ccc3ccccc3c2)NC(=O)[C@H](CCCNC(=N)N)NC1=O` [Cyclorasin 8A, (Arg-Arg-nal-Arg-Fpa-Phg-Tyr-ser-phe-Gln)] (cyclo(RR[d2Nal]R[Phe(4-F)][Phg]Y[dS][dF]E(Lys(5-FITC)NH2))): over 10000 nM; `CC(C)[C@H]1NC(=O)[C@H](Cc2ccc(F)cc2)NC(=O)[C@H](Cc2ccc(O)cc2)NC(=O)[C@H](CCCNC(=N)N)NC(=O)[C@H](Cc2ccc(F)cc2)NC(=O)[C@H](CCCNC(=N)N)NC(=O)[C@@H](Cc2ccc3ccccc3c2)NC(=O)[C@H](CCCNC(=N)N)NC(=O)[C@H](CCCNC(=N)N)NC(=O)[C@H](CCC(=O)N[C@@H](CCCCNC(=S)Nc2ccc3c(c2)C(=O)OC32c3ccc(O)cc3Oc3cc(O)ccc32)C(N)=O)NC1=O` [Cyclorasin 1A, (Arg-Arg-nal-Arg-Fpa-Arg-Tyr-Fpa-val-Gln)] (cyclo(RR[d2Nal]R[Phe(4-F)]RY[Phe(4-F)][dV]E(Lys(5-FITC)NH2))): over 10000 nM.

The same assay, now with this note: Table 2; FITC-labeled peptide; read-out: Binding affinity KD.
Regarding `C[C@H]1NC(=O)[C@H](C(C)(C)C)NC(=O)[C@H](CNC(=O)C=Cc2ccc(Cl)cc2)NC(=O)[C@H](CCC(N)=O)NC(=O)[C@@H](CCCCN)NC(=O)[C@H](Cc2ccc(F)cc2)NC(=O)[C@H](CCCNC(=N)N)NC(=O)[C@@H](Cc2ccc3ccccc3c2)NC(=O)[C@H](CCCCNC(=S)Nc2ccc3c(c2)C(=O)OC32c3ccc(O)cc3Oc3cc(O)ccc32)NC(=O)[C@H](CCCNC(=N)N)NC(=O)[C@H](CCCNC(=N)N)NC1=O` [Cyclorasin 9A28, (Dap(4-chlorocinnamoyl)-Tle-ala-Arg-Arg-Lys(FITC)-nal-Arg-Fpa-lys-Gln)] (cyclo([Dap](X2)[Tle][dA]RRK(FITC)[d2Nal]R[Phe(4-F)][dK]Q)), the equilibrium dissociation constant (Kd) is 160 ± 20 nM. The same measure, in the same setting: the result for `C[C@H]1NC(=O)[C@H](C(C)(C)C)NC(=O)[C@H](Cc2c[nH]c3ccccc23)NC(=O)[C@H](CCC(N)=O)NC(=O)[C@@H](CCCCNC(=O)c2ccc(Cl)nc2)NC(=O)[C@H](Cc2ccc(F)cc2)NC(=O)[C@H](CCCNC(=N)N)NC(=O)[C@@H](Cc2ccc3ccccc3c2)NC(=O)[C@H](CCCCNC(=S)Nc2ccc3c(c2)C(=O)OC32c3ccc(O)cc3Oc3cc(O)ccc32)NC(=O)[C@H](CCCNC(=N)N)NC(=O)[C@H](CCCNC(=N)N)NC1=O` [Cyclorasin 9A33, (Trp-Tle-ala-Arg-Arg-Lys(FITC)-nal-Arg-Fpa-lys(6-chloronicotinoyl)-Gln)] (cyclo(K(FITC)[d2Nal]R[Phe(4-F)][dK](X4)QW[Tle][dA]RR)) reads over 20000 nM.

With `C[C@H]1NC(=O)[C@H](C(C)(C)C)NC(=O)[C@H](CNC(=O)c2cc(F)cc(Br)c2)NC(=O)[C@H](CCC(N)=O)NC(=O)[C@@H](CCCCN)NC(=O)[C@H](Cc2ccc(F)cc2)NC(=O)[C@H](CCCNC(=N)N)NC(=O)[C@@H](Cc2ccc3ccccc3c2)NC(=O)[C@H](CCCCNC(=S)Nc2ccc3c(c2)C(=O)OC32c3ccc(O)cc3Oc3cc(O)ccc32)NC(=O)[C@H](CCCNC(=N)N)NC(=O)[C@H](CCCNC(=N)N)NC1=O` [Cyclorasin 9A25, (Dap(3-bromo-5-fluorobenzoyl)-Tle-ala-Arg-Arg-Lys(FITC)-nal-Arg-Fpa-lys-Gln)] (cyclo([Dap](X5)[Tle][dA]RRK(FITC)[d2Nal]R[Phe(4-F)][dK]Q)), the dissociation constant Kd worked out at 470 ± 100 nM. As to `C[C@H]1NC(=O)[C@H](C(C)(C)C)NC(=O)[C@H](Cc2c[nH]c3ccccc23)NC(=O)[C@H](CCC(N)=O)NC(=O)[C@@H](CCCCNC(=O)c2cccc(Br)c2)NC(=O)[C@H](Cc2ccc(F)cc2)NC(=O)[C@H](CCCNC(=N)N)NC(=O)[C@@H](Cc2ccc3ccccc3c2)NC(=O)[C@H](CCCCNC(=S)Nc2ccc3c(c2)C(=O)OC32c3ccc(O)cc3Oc3cc(O)ccc32)NC(=O)[C@H](CCCNC(=N)N)NC(=O)[C@H](CCCNC(=N)N)NC1=O` [Cyclorasin 9A36, (Trp-Tle-ala-Arg-Arg-Lys(FITC)-nal-Arg-Fpa-lys(3-bromobenzoyl)-Gln)] (cyclo(K(FITC)[d2Nal]R[Phe(4-F)][dK](Benzoyl(3-Br))QW[Tle][dA]RR)), the Kd was over 20000 nM. Turning to `C[C@H]1NC(=O)[C@H](C(C)(C)C)NC(=O)[C@H]([C@@H](C)OCc2ccccc2)NC(=O)[C@H](CCC(N)=O)NC(=O)[C@@H](CCCCN)NC(=O)[C@H](Cc2ccc(F)cc2)NC(=O)[C@H](CCCNC(=N)N)NC(=O)[C@@H](Cc2ccc3ccccc3c2)NC(=O)[C@H](CCCCNC(=S)Nc2ccc3c(c2)C(=O)OC32c3ccc(O)cc3Oc3cc(O)ccc32)NC(=O)[C@H](CCCNC(=N)N)NC(=O)[C@H](CCCNC(=N)N)NC1=O` [Cyclorasin 9A26, (Thr(Bzl)-Tle-ala-Arg-Arg-Lys(FITC)-nal-Arg-Fpa-lys-Gln)] (cyclo(K(FITC)[d2Nal]R[Phe(4-F)][dK]QT(Bn)[Tle][dA]RR)), the dissociation constant (Kd) was 710 ± 70 nM. Regarding `C[C@H]1NC(=O)[C@H](C(C)(C)C)NC(=O)[C@H](CNC(=O)c2cccc(Br)c2)NC(=O)[C@H](CCC(N)=O)NC(=O)[C@@H](CCCCN)NC(=O)[C@H](Cc2ccc(F)cc2)NC(=O)[C@H](CCCNC(=N)N)NC(=O)[C@@H](Cc2ccc3ccccc3c2)NC(=O)[C@H](CCCCNC(=S)Nc2ccc3c(c2)C(=O)OC32c3ccc(O)cc3Oc3cc(O)ccc32)NC(=O)[C@H](CCCNC(=N)N)NC(=O)[C@H](CCCNC(=N)N)NC1=O` [Cyclorasin 9A30, (Dap(3-bromobenzoyl)-Tle-ala-Arg-Arg-Lys(FITC)-nal-Arg-Fpa-lys-Gln)] (cyclo([Dap](Benzoyl(3-Br))[Tle][dA]RRK(FITC)[d2Nal]R[Phe(4-F)][dK]Q)), the equilibrium dissociation constant (Kd) amounted to 640 ± 70 nM. Still for that read-out and setting: next, `C[C@H]1NC(=O)[C@H](C(C)(C)C)NC(=O)[C@H](Cc2c[nH]c3ccccc23)NC(=O)[C@H](CCC(N)=O)NC(=O)[C@@H](CCCCNC(=O)c2ccncc2)NC(=O)[C@H](Cc2ccc(F)cc2)NC(=O)[C@H](CCCNC(=N)N)NC(=O)[C@@H](Cc2ccc3ccccc3c2)NC(=O)[C@H](CCCCNC(=S)Nc2ccc3c(c2)C(=O)OC32c3ccc(O)cc3Oc3cc(O)ccc32)NC(=O)[C@H](CCCNC(=N)N)NC(=O)[C@H](CCCNC(=N)N)NC1=O` [Cyclorasin 9A35, (Trp-Tle-ala-Arg-Arg-Lys(FITC)-nal-Arg-Fpa-lys(isonicotinoyl)-Gln)] (cyclo(W[Tle][dA]RRK(FITC)[d2Nal]R[Phe(4-F)][dK](Isonicotinoyl)Q)): over 20000 nM; `C[C@H]1NC(=O)[C@H](C(C)(C)C)NC(=O)[C@H](CNC(=O)c2ccncc2)NC(=O)[C@H](CCC(N)=O)NC(=O)[C@@H](CCCCN)NC(=O)[C@H](Cc2ccc(F)cc2)NC(=O)[C@H](CCCNC(=N)N)NC(=O)[C@@H](Cc2ccc3ccccc3c2)NC(=O)[C@H](CCCCNC(=S)Nc2ccc3c(c2)C(=O)OC32c3ccc(O)cc3Oc3cc(O)ccc32)NC(=O)[C@H](CCCNC(=N)N)NC(=O)[C@H](CCCNC(=N)N)NC1=O` [Cyclorasin 9A29, (Dap(isonicotinoyl)-Tle-ala-Arg-Arg-Lys(FITC)-nal-Arg-Fpa-lys-Gln)] (cyclo([Dap](Isonicotinoyl)[Tle][dA]RRK(FITC)[d2Nal]R[Phe(4-F)][dK]Q)): 1200 ± 100 nM. The same measure, in the same setting: next, `C[C@H]1NC(=O)[C@H](C(C)(C)C)NC(=O)[C@H](Cc2c[nH]c3ccccc23)NC(=O)[C@H](CCC(N)=O)NC(=O)[C@@H](CCCCNC(=O)c2cc(F)cc(Br)c2)NC(=O)[C@H](Cc2ccc(F)cc2)NC(=O)[C@H](CCCNC(=N)N)NC(=O)[C@@H](Cc2ccc3ccccc3c2)NC(=O)[C@H](CCCCNC(=S)Nc2ccc3c(c2)C(=O)OC32c3ccc(O)cc3Oc3cc(O)ccc32)NC(=O)[C@H](CCCNC(=N)N)NC(=O)[C@H](CCCNC(=N)N)NC1=O` [Cyclorasin 9A32, (Trp-Tle-ala-Arg-Arg-Lys(FITC)-nal-Arg-Fpa-lys(3-bromo-5-fluorobenzoyl)-Gln)] (cyclo(K(FITC)[d2Nal]R[Phe(4-F)][dK](X5)QW[Tle][dA]RR)): over 20000 nM; `C[C@H]1NC(=O)[C@H](C(C)(C)C)NC(=O)[C@H](Cc2c[nH]c3ccccc23)NC(=O)[C@H](CCC(N)=O)NC(=O)[C@@H](CCCCNC(=O)C=Cc2ccc(Cl)cc2)NC(=O)[C@H](Cc2ccc(F)cc2)NC(=O)[C@H](CCCNC(=N)N)NC(=O)[C@@H](Cc2ccc3ccccc3c2)NC(=O)[C@H](CCCCNC(=S)Nc2ccc3c(c2)C(=O)OC32c3ccc(O)cc3Oc3cc(O)ccc32)NC(=O)[C@H](CCCNC(=N)N)NC(=O)[C@H](CCCNC(=N)N)NC1=O` [Cyclorasin 9A34, (Trp-Tle-ala-Arg-Arg-Lys(FITC)-nal-Arg-Fpa-lys(4-chlorocinnamoyl)-Gln)] (cyclo(K(FITC)[d2Nal]R[Phe(4-F)][dK](X2)QW[Tle][dA]RR)): over 20000 nM.
